# Results reported in patent US7572770B2, “Use of an interleukin 1 receptor antagonist and/or pyrrolidinedithiocarbamate for the treatment or prophylaxis of type 2 diabetes” (University of Zurich, priority 2002, dated 2009).
# Experiments:
# [1] = system: IL-1Ra; test: IL-1Ra expression and release in human islets; type: cell-based; details: for IL-1Ra released into the culture medium and IL-1Ra mRNA: 10 to 500 nM leptin
# Description: Islet isolation and cell culture. Islets were isolated from pancreases of ten organ donors at the Department of Surgery, University of Geneva Medical Center, as described (32-34). The islet purity was >95%, as judged by dithizone staining (if this degree of purity was not primarily achieved by routine isolation, islets were handpicked). […] For long-term in vitro studies, the islets were cultured on extracellular matrix-coated plates derived from bovine corneal endothelial cells (Novamed Ltd., Jerusalem, Israel), allowing the cells to attach to the dishes and spread, preserving their functional integrity (7;35). Islets were cultured in CMRL 1066 medium containing 100 U/ml penicillin, 100 μg/ml streptomycin and 10% fetal calf serum (Invitrogen Corporation, Paisley, U.K.), hereafter referred to as culture medium. Two days after plating, when most islets were attached and began to flatten, the medium was changed to culture medium containing 5.5, 11.1 or 33.3 mM glucose. In some experiments, islets were additionally cultured with 5, 10 or 500 nM rh leptin (PeproTech, London, UK), 500 ng/ml rh IL-1Ra (R&D Systems Inc., Minneapolis, Minn.) or 50 nM small interfering RNA (siRNA) as described below.
# RNA interference. RNAs of 21 nucleotides, designed to target human IL-1Ra (5′AUCUGCAGAGGCCUCCGCAtt3′/5′UGCGGAGGCCUCUGCAGAUtt3′) and scrambled siRNA were synthesized by Ambion (Austin, Tex.). siRNAs were transfected using SiPortAmine™ according to the manufacturer's instructions (Ambion).
# Detection of IL-1Ra and IL-1β expressing cells. Pancreases from routine necropsies were immersion-fixed in formalin, followed by paraffin embedding. In parallel, isolated human were cultured in a suspension for 48 hours and exposed to 10 nM leptin or 33.3 mM glucose, islets were fixed in Bouin solution for 15 min, resuspended in 40 μl of 2% melted agarose in PBS (40° C.), followed by rapid centrifugation and paraffin embedding. Sections were deparaffinized, rehydrated and then incubated in methanol for 4 min. Human islets cultured on extracellular matrix for 4 days were washed in PBS, fixed in 4% paraformaldehyde (30 min, room temperature) followed by permeabilization with 0.5% triton X-100 (4 min, room temperature). Pancreas and islet sections and cultured cells were double-labeled for IL-1Ra or IL-1β and insulin, CD68, glucagon or somatostatin by 1 h of exposure to 10% bovine serum albumin followed by incubation (1 h, 37° C.) with biotinylated goat anti-IL-1Ra or mouse anti-IL-1β antibodies (R&D Systems Inc.). Detection was performed using cy3-(Jackson, ImMunoResearch Laboratories, West Grove, Pa.) or cy2-(Transduction Lab., Lexington, Ky.) conjugated streptavidin. […]
# [2] = system: IL-1β; test: IL-1β release from human blood monocytes exposed to leptin; type: cell-based
# Description: Human blood monocytes were isolated as described previously (37), cultured in RPMI 1640 (Invitrogen) containing 100 U/ml penicillin, 100 μg/ml streptomycin and 10% fetal calf serum and exposed to 10 or 500 nM leptin.
# Cytokine release. Cytokine release was evaluated in the culture medium collected before the termination of each experiment using human IL-1β and IL-1Ra ELISA kits (R&D Systems Inc.).
substance,measurement,setting,value
leptin: rh leptin (PeproTech); protein encoded by the ob gene,IL-1Ra expression in β-cells (double immunostaining),"[1]; 10 nM leptin, 48 hours",decreased IL-1Ra expression in most β-cells
same,IL-1Ra released into the culture medium and IL-1Ra mRNA,[1]; 15 hours,increased
same,IL-1Ra released into the culture medium and IL-1Ra mRNA,[1]; 48 hours,marked decrease
same,IL-1Ra protein (Western blot),"[1]; leptin, 15-hour exposure",decreased IL-1Ra already after a 15-hour exposure
same,IL-1β release from peripheral blood monocytes,[2]; 15 hours,increased IL-1β release
same,IL-1β release from peripheral blood monocytes,[2]; 48 hours,did not significantly affect IL-1β release
